# Results published in ChEMBL document CHEMBL5723585, “Data for DCP probe JNJ-54082730” (2024).
# Columns and labels:
# [1] = biological target: 5-hydroxytryptamine receptor 1B (Homo sapiens) (UniProt P28222); assay: 5-HT1B Eurofins-Cerep binding assay; parameters: ligand concentration 1 nM; settings: filed as antagonist, Compound concentration 10.0 uM
# [2] = biological target: Kappa-type opioid receptor (Homo sapiens) (UniProt P41145); assay: kappa (KOP) Eurofins-Cerep binding assay; settings: filed as agonist, Compound concentration 10.0 uM
# [3] = biological target: 5-hydroxytryptamine receptor 1A (Homo sapiens) (UniProt P08908); assay: 5-HT1A Eurofins-Cerep binding assay; parameters: ligand concentration 0.5 nM; settings: filed as agonist, Compound concentration 10.0 uM
# [4] = biological target: 5-hydroxytryptamine receptor 2B (Homo sapiens) (UniProt P41595); assay: 5-HT2B Eurofins-Cerep binding assay; settings: filed as agonist, Compound concentration 10.0 uM
# [5] = biological target: 5-hydroxytryptamine receptor 3A (Homo sapiens) (UniProt P46098); assay: 5-HT3 Eurofins-Cerep binding assay; parameters: ligand concentration 0.5 nM; settings: filed as antagonist, Compound concentration 10.0 uM
# [6] = biological target: Adenosine receptor A2a (Homo sapiens) (UniProt P29274); assay: A2A Eurofins-Cerep binding assay; parameters: ligand concentration 6 nM; settings: filed as agonist, Compound concentration 10.0 uM
# [7] = biological target: Beta-1 adrenergic receptor (Homo sapiens) (UniProt P08588); assay: beta 1 Eurofins-Cerep binding assay; parameters: ligand concentration 0.3 nM; settings: filed as agonist, Compound concentration 10.0 uM
# [8] = biological target: Cholecystokinin receptor type A (Homo sapiens) (UniProt P32238); assay: CCK1 (CCKA) Eurofins-Cerep binding assay; parameters: ligand concentration 0.08 nM; settings: filed as agonist, Compound concentration 10.0 uM
# [9] = biological target: D(1A) dopamine receptor (Homo sapiens) (UniProt P21728); assay: D1 Eurofins-Cerep binding assay; parameters: ligand concentration 0.3 nM; settings: filed as antagonist, Compound concentration 10.0 uM
# [10] = biological target: Sodium-dependent dopamine transporter (Homo sapiens) (UniProt Q01959); assay: dopamine transporter Eurofins-Cerep binding assay; settings: filed as antagonist, Compound concentration 10.0 uM
# [11] = biological target: Delta-type opioid receptor (Homo sapiens) (UniProt P41143); assay: delta (DOP) Eurofins-Cerep binding assay; parameters: ligand concentration 0.5 nM; settings: filed as agonist, Compound concentration 10.0 uM
# [12] = biological target: Endothelin-1 receptor (Homo sapiens) (UniProt P25101); assay: ETA Eurofins-Cerep binding assay; parameters: ligand concentration 0.03 nM; settings: filed as agonist, Compound concentration 10.0 uM
# [13] = biological target: Histamine H1 receptor (Homo sapiens) (UniProt P35367); assay: H1 Eurofins-Cerep binding assay; parameters: ligand concentration 1 nM; settings: filed as antagonist, Compound concentration 10.0 uM
# [14] = biological target: Histamine H2 receptor (Homo sapiens) (UniProt P25021); assay: H2 Eurofins-Cerep binding assay; parameters: ligand concentration 0.075 nM; settings: filed as antagonist, Compound concentration 10.0 uM
# [15] = species: Rattus norvegicus; assay: KV channel Eurofins-Cerep binding assay; parameters: ligand concentration 0.01 nM; settings: filed as antagonist, Compound concentration 10.0 uM
# [16] = biological target: Muscarinic acetylcholine receptor M1 (Homo sapiens) (UniProt P11229); assay: M1 Eurofins-Cerep binding assay; parameters: ligand concentration 2 nM; settings: filed as antagonist, Compound concentration 10.0 uM
# [17] = biological target: Muscarinic acetylcholine receptor M2 (Homo sapiens) (UniProt P08172); assay: M2 Eurofins-Cerep binding assay; parameters: ligand concentration 2 nM; settings: filed as antagonist, Compound concentration 10.0 uM
# [18] = biological target: Muscarinic acetylcholine receptor M3 (Homo sapiens) (UniProt P20309); assay: M3 Eurofins-Cerep binding assay; parameters: ligand concentration 0.2 nM; settings: filed as antagonist, Compound concentration 10.0 uM
# [19] = biological target: Mu-type opioid receptor (Homo sapiens) (UniProt P35372); assay: mu (MOP) Eurofins-Cerep binding assay; parameters: ligand concentration 0.5 nM; settings: filed as agonist, Compound concentration 10.0 uM
# [20] = biological target: Sodium-dependent noradrenaline transporter (Homo sapiens) (UniProt P23975); assay: norepinephrine transporter Eurofins-Cerep binding assay; parameters: ligand concentration 1 nM; settings: filed as antagonist, Compound concentration 10.0 uM
# [21] = biological target: Sodium-dependent serotonin transporter (Homo sapiens) (UniProt P31645); assay: 5-HT transporter Eurofins-Cerep binding assay; parameters: ligand concentration 2 nM; settings: filed as antagonist, Compound concentration 10.0 uM
# [22] = biological target: Vasopressin V1a receptor (Homo sapiens) (UniProt P37288); assay: V1a Eurofins-Cerep binding assay; parameters: ligand concentration 0.3 nM; settings: filed as agonist, Compound concentration 10.0 uM
# [23] = biological target: 5-hydroxytryptamine receptor 7 (Homo sapiens) (UniProt P34969); assay: 5-HT7 Eurofins-Cerep binding assay; parameters: ligand concentration 4 nM; settings: filed as agonist, Compound concentration 10.0 uM
# [24] = biological target: Adenosine receptor A1 (Homo sapiens) (UniProt P30542); assay: A1 Eurofins-Cerep binding assay; parameters: ligand concentration 1 nM; settings: filed as antagonist, Compound concentration 10.0 uM
# [25] = biological target: Adenosine receptor A3 (Homo sapiens) (UniProt P0DMS8); assay: A3 Eurofins-Cerep binding assay; parameters: ligand concentration 0.15 nM; settings: filed as agonist, Compound concentration 10.0 uM
# [26] = biological target: Type-1 angiotensin II receptor (Homo sapiens) (UniProt P30556); assay: AT1 Eurofins-Cerep binding assay; settings: filed as antagonist, Compound concentration 10.0 uM
# [27] = biological target: Melanocortin receptor 4 (Homo sapiens) (UniProt P32245); assay: MC4 Eurofins-Cerep binding assay; parameters: ligand concentration 0.05 nM; settings: filed as agonist, Compound concentration 10.0 uM
# [28] = biological target: Melatonin receptor type 1A (Homo sapiens) (UniProt P48039); assay: MT1 (ML1A) Eurofins-Cerep binding assay; parameters: ligand concentration 0.01 nM; settings: filed as agonist, Compound concentration 10.0 uM
# [29] = species: Rattus norvegicus; assay: BZD (central) Eurofins-Cerep binding assay; settings: filed as agonist, Compound concentration 10.0 uM
# [30] = biological target: Neuropeptide Y receptor type 1 (Homo sapiens) (UniProt P25929); assay: Y1 Eurofins-Cerep binding assay; parameters: ligand concentration 0.025 nM; settings: filed as agonist, Compound concentration 10.0 uM
# [31] = biological target: Neuropeptide Y receptor type 2 (Homo sapiens) (UniProt P49146); assay: Y2 Eurofins-Cerep binding assay; parameters: ligand concentration 0.015 nM; settings: filed as agonist, Compound concentration 10.0 uM
# [32] = species: Rattus norvegicus; assay: Cl-channel (GABA-gated) Eurofins-Cerep binding assay; parameters: ligand concentration 3 nM; settings: filed as antagonist, Compound concentration 10.0 uM
# Chain of Muscarinic acetylcholine receptor M1 (Homo sapiens) (P11229 whole entry): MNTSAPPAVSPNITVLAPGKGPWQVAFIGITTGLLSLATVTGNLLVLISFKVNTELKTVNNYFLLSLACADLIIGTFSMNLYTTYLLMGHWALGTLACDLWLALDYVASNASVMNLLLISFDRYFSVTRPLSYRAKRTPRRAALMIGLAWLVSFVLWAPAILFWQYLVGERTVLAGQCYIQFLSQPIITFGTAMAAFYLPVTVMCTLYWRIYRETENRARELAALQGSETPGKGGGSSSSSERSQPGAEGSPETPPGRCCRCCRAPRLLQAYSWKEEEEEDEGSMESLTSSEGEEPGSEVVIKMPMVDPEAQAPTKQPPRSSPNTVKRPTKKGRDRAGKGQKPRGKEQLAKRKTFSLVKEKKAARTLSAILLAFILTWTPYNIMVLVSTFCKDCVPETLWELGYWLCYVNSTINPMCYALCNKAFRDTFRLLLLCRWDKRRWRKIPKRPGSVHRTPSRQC
# Chain of 5-hydroxytryptamine receptor 1A (Homo sapiens) (P08908 whole entry): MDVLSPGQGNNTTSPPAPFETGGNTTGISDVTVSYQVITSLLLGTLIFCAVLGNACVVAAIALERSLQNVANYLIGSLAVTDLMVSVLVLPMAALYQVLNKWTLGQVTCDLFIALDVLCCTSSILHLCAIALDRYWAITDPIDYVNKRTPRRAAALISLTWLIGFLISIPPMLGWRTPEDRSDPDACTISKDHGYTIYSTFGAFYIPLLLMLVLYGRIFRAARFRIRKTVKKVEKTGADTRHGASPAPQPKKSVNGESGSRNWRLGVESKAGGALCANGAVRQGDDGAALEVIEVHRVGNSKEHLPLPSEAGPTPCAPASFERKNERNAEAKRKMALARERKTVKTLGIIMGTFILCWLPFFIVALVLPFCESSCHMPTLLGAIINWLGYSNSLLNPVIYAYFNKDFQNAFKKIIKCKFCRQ
# Chain of Endothelin-1 receptor (Homo sapiens) (P25101 whole entry): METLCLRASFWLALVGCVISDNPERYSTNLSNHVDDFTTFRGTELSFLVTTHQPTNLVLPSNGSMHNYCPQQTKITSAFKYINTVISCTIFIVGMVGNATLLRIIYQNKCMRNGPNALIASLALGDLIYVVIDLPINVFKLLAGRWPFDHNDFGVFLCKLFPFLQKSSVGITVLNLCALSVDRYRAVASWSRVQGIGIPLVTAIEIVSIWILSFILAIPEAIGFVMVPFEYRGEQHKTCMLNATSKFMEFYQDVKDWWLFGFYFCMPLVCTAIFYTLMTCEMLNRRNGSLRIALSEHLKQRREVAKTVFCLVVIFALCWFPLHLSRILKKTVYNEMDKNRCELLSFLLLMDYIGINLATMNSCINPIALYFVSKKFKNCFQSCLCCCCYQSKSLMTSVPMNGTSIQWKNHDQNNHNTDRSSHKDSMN
# Chain of 5-hydroxytryptamine receptor 2B (Homo sapiens) (P41595 whole entry): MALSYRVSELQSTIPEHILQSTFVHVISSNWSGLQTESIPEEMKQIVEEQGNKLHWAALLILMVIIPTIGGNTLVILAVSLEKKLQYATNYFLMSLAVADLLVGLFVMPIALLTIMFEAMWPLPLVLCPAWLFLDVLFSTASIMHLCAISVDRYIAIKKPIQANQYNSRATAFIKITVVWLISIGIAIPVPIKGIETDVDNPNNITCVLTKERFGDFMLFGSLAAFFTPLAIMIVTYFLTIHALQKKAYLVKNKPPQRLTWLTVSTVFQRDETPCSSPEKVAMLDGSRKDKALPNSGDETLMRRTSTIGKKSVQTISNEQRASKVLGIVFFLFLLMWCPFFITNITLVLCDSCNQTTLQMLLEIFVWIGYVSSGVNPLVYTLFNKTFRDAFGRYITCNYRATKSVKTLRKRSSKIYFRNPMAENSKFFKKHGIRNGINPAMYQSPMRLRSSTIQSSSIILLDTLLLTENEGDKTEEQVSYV
# Chain of Type-1 angiotensin II receptor (Homo sapiens) (P30556 whole entry): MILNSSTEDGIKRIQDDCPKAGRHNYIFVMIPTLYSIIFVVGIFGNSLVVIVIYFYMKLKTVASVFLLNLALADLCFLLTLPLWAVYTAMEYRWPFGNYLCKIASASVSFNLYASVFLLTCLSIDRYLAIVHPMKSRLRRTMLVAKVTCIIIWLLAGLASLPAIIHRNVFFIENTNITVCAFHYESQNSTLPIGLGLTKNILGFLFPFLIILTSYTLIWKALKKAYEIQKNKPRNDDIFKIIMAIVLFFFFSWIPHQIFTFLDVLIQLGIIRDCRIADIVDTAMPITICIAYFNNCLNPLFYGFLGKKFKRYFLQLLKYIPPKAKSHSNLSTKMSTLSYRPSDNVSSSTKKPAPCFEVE
# Chain of Kappa-type opioid receptor (Homo sapiens) (P41145 whole entry): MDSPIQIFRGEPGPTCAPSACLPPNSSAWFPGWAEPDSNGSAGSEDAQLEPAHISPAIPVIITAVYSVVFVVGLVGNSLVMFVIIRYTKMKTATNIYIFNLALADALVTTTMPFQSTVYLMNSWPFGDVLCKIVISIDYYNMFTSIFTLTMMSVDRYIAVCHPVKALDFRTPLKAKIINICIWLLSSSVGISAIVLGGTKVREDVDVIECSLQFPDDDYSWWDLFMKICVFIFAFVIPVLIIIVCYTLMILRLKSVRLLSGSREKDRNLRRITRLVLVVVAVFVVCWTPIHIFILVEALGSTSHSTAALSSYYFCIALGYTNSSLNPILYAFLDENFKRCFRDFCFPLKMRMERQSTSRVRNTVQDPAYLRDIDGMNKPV
# Chain of Muscarinic acetylcholine receptor M3 (Homo sapiens) (P20309 whole entry, looked up): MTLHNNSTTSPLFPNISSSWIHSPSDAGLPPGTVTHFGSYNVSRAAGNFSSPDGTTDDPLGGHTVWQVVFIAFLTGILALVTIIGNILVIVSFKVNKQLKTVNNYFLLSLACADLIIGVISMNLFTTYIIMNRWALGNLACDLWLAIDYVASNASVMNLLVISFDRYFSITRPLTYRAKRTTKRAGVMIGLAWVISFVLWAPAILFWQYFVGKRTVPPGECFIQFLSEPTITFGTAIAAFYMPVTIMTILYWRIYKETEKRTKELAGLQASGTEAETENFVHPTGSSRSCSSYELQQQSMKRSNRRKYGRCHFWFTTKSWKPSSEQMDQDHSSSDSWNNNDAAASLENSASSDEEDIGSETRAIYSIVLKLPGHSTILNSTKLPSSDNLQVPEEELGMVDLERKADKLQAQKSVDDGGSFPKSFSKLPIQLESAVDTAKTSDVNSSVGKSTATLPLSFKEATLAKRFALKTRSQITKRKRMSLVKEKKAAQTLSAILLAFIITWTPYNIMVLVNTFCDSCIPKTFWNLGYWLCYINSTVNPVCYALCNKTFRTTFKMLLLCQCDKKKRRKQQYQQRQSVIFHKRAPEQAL
# Chain of Adenosine receptor A1 (Homo sapiens) (P30542 whole entry): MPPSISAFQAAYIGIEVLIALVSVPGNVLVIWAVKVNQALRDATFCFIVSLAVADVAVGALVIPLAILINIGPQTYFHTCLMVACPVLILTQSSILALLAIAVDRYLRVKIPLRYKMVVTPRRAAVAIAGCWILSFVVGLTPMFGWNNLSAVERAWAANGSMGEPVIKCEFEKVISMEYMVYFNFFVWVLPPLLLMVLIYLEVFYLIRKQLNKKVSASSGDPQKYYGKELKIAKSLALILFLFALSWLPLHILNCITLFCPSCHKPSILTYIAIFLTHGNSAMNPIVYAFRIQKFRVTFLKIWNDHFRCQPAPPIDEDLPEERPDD
# Chain of Beta-1 adrenergic receptor (Homo sapiens) (P08588 whole entry, looked up): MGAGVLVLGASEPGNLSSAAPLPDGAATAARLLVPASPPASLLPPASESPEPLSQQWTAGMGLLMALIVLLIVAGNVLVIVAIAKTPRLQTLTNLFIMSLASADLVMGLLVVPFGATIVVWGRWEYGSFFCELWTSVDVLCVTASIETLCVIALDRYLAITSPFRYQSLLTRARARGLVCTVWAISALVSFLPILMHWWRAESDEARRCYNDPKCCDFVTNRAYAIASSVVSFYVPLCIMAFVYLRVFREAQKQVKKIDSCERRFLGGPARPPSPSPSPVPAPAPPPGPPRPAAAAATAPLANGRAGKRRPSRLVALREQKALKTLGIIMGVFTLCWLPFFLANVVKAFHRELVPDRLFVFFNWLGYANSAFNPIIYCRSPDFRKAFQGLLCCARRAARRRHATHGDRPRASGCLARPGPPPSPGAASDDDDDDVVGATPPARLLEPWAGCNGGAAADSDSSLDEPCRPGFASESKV
# Chain of Adenosine receptor A2a (Homo sapiens) (P29274 whole entry): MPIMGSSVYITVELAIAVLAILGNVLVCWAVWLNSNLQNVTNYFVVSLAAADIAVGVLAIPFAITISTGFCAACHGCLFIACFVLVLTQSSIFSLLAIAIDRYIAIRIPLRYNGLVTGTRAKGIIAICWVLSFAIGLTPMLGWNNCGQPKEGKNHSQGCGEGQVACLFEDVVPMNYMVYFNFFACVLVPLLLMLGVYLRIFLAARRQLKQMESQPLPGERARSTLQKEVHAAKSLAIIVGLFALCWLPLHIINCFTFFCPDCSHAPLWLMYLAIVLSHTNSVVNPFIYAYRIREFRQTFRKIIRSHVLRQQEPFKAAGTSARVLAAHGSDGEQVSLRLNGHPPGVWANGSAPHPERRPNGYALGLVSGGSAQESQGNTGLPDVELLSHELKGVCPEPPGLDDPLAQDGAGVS
# Chain of Histamine H1 receptor (Homo sapiens) (P35367 whole entry): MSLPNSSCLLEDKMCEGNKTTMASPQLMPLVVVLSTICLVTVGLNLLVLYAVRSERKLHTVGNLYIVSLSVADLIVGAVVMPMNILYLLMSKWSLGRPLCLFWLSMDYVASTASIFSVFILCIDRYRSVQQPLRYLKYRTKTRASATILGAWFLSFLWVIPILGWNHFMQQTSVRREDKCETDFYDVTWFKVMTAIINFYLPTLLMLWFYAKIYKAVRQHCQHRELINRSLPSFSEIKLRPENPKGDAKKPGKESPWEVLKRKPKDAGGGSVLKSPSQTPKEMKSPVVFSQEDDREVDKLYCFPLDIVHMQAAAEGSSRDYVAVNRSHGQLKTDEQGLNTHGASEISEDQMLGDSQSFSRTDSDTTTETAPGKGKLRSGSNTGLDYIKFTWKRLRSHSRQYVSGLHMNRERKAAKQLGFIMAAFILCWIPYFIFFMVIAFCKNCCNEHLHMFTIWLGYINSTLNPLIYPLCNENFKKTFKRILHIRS
smiles,measurement,setting,value
Cc1cc(C(=O)N2CC[C@@H](C)[C@H](c3cc(C(F)F)nc4ncnn34)C2)cc(C)n1,residual activity,[1],102%
same,residual activity,[2],91%
same,residual activity,[3],99%
same,residual activity,[4],118%
same,residual activity,[5],103%
same,residual activity,[6],55.1%
same,residual activity,[7],96.8%
same,residual activity,[8],104%
same,residual activity,[9],99.2%
same,residual activity,[10],108%
same,residual activity,[11],90.2%
same,residual activity,[12],102%
same,residual activity,[13],106%
same,residual activity,[14],103%
same,residual activity,[15],93.6%
same,residual activity,[16],92.8%
same,residual activity,[17],115%
same,residual activity,[18],103%
same,residual activity,[19],96%
same,residual activity,[20],99%
same,residual activity,[21],117%
same,residual activity,[22],97.3%
same,residual activity,[23],105%
same,residual activity,[24],107%
same,residual activity,[25],104%
same,residual activity,[26],104%
same,residual activity,[27],111%
same,residual activity,[28],109%
same,residual activity,[29],105%
same,residual activity,[30],108%
same,residual activity,[31],109%
same,residual activity,[32],102%
